{
  "source": "patent US7816522B2",
  "about": "“Triazolone derivatives” (Eisai Co., Ltd., priority 2006, dated 2010)",
  "biological_target": "T1, human clotting factor VIIa (Homo sapiens, UniProt P08709)",
  "T1 construct": "a human clotting factor VIIa (hereinafter, “Factor VIIa”) purified sample; purchased Enzyme Research Laboratories HFVIIa",
  "T1 sequence (P08709 213-466 limits assumed)": "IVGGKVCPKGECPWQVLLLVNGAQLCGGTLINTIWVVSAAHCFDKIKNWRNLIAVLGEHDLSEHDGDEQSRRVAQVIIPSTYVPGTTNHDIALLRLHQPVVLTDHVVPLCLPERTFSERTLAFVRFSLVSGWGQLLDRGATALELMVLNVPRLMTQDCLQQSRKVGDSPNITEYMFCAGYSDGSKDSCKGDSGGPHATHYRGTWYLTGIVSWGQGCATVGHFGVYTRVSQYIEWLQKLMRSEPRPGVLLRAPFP",
  "T1 sequence (P08709 61-212 limits assumed)": "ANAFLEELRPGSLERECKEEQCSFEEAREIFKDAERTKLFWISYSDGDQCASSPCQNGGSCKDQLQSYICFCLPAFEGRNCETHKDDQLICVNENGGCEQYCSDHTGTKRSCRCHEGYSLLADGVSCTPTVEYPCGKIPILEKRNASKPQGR",
  "T1 sequence (P13726 33-295 partner)": "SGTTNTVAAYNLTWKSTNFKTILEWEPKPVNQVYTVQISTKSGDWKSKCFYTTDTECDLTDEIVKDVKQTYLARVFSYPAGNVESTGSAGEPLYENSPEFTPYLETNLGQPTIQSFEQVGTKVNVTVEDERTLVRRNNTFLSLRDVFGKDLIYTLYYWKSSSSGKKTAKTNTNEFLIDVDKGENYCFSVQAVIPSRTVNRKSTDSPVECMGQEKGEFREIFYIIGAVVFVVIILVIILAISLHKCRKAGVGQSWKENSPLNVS",
  "experiment": "Inhibitory activity against clotting factor VIIa (chromogenic substrate Spectrozyme FVIIa, TF/Factor VIIa enzyme solution)",
  "assay_type": "biochemical",
  "details": "human Factor VIIa 5 nmol/L with human TF 10 nmol/L, room temperature 40 minutes, 405 nm",
  "procedure,_shortened": "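Human Factor VIIa (5 nmol/L) with human TF (10 nmol/L) in Tris-BSA buffer pH 7.4 containing 15 mmol/L CaCl2 and cephalin, with Spectrozyme FVIIa substrate. Reaction 40 min at room temperature; 4-nitroanilide read at 405 nm. IC50 by non-linear regression over 100 μmol/L–0.1 nmol/L.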",
  "note": "Structures can show the parent of a compound that is named as a salt.",
  "data": [
    {"smiles": "COc1cc(C(Nc2ccc(C(=N)N)cc2)c2nn(-c3ccsc3C(=O)O)c(=O)[nH]2)cc(OC)c1OC", "note": "(racemic) [Example 227, 3-{3-[(R) and (S)-(4-Carbamimidoylphenylamino)-(3,4,5-trimethoxyphenyl)methyl]-5-oxo-4,5-dihydro-[1,2,4]triazol-1-yl}thiophene-2-carboxylic acid]", "values": [
      {"measurement": "IC50", "value": 0.0045, "unit": "µM"}
    ]},
    {"smiles": "COc1cc(OCCO)c(F)c(C(Nc2ccc(C(=N)N)cc2)c2nn(-c3ccsc3C(=O)O)c(=O)[nH]2)c1", "note": "(racemic) [Example 228, (R) and (S)-3-(3-{(4-Carbamimidoylphenylamino)-[2-fluoro-3-(2-hydroxyethoxy)-5-methoxyphenyl]methyl}-5-oxo-4,5-dihydro[1,2,4]triazol-1-yl)thiophene-2-carboxylic acid]", "values": [
      {"measurement": "IC50", "value": 0.0026, "unit": "µM"}
    ]},
    {"smiles": "COc1cc(OCCCO)c(F)c(C(Nc2ccc(C(=N)N)cc2)c2nn(-c3ncccn3)c(=O)[nH]2)c1", "note": "(racemic) [Example 229, (R) and (S)-4-{[[2-Fluoro-3-(3-hydroxypropoxy)-5-methoxyphenyl]-(5-oxo-1-pyrimidin-2-yl-4,5-dihydro-1H-[1,2,4]triazol-3-yl)methyl]amino}benzamidine acetate]", "values": [
      {"measurement": "IC50", "value": 0.0051, "unit": "µM"}
    ]},
    {"smiles": "COc1cc(C(Nc2ccc(C(=N)N)cc2)c2nn(-c3ccsc3C(=O)O)c(=O)[nH]2)cc(OCCO)c1OC", "note": "(racemic) [Example 230, (R) and (S)-3-(3-{(4-Carbamimidoylphenylamino)-[3-(2-hydroxyethoxy)-4,5-dimethoxyphenyl]methyl}-5-oxo-4,5-dihydro-[1,2,4]triazol-1-yl)thiophene-2-carboxylic acid]", "values": [
      {"measurement": "IC50", "value": 0.0049, "unit": "µM"}
    ]},
    {"smiles": "COc1cc(C(Nc2ccc(C(=N)N)c(F)c2)c2nn(-c3ccsc3C(=O)O)c(=O)[nH]2)c(F)c2c1OCCO2", "note": "(racemic) [Example 231, 3-{3-[(4-Carbamimidoyl-3-fluorophenylamino)-(5-fluoro-8-methoxy-2,3-dihydrobenzo[1,4]dioxin-6-yl)methyl]-5-oxo-4,5-dihydro-[1,2,4]triazol-1-yl}thiophene-2-carboxylic acid]", "values": [
      {"measurement": "IC50", "value": 0.0065, "unit": "µM"}
    ]},
    {"smiles": "COc1cc(OC)cc(C(Nc2ccc(C(=N)N)cc2)c2nn(-c3ncsc3C(=O)O)c(=O)[nH]2)c1", "note": "(racemic) [Example 232, (R) and (S)-4-{3-[(4-Carbamimidoylphenylamino)-(3,5-dimethoxyphenyl)methyl]-5-oxo-4,5-dihydro-[1,2,4]triazol-1-yl}thiazole-5-carboxylic acid]", "values": [
      {"measurement": "IC50", "value": 0.0237, "unit": "µM"}
    ]},
    {"smiles": "COc1cc(C(Nc2ccc(C(=N)N)cc2)c2nn(-c3ncsc3C(=O)O)c(=O)[nH]2)cc(OCCO)c1OC", "note": "(racemic) [Example 233, (R) and (S)-4-(3-{(4-Carbamimidoylphenylamino)-[3-(2-hydroxyethoxy)-4,5-dimethoxyphenyl]methyl}-5-oxo-4,5-dihydro-[1,2,4]triazol-1-yl)thiazole-5-carboxylic acid]", "values": [
      {"measurement": "IC50", "value": 0.0238, "unit": "µM"}
    ]},
    {"smiles": "COc1cc(C(Nc2ccc(C(=N)N)cc2)c2nn(-c3ncccn3)c(=O)[nH]2)cnc1OC", "note": "(racemic) [Example 234, 4-{[(5,6-Dimethoxypyridin-3-yl)-(5-oxo-1-pyrimidin-2-yl-4,5-dihydro-1H-[1,2,4]triazol-3-yl)methyl]amino}benzamidine]", "values": [
      {"measurement": "IC50", "value": 0.0111, "unit": "µM"}
    ]},
    {"smiles": "CCOc1cc(C(Nc2ccc(C(=N)N)cc2)c2nn(-c3ccsc3C(=O)O)c(=O)[nH]2)cnc1OC", "note": "(racemic) [Example 235, 3-{3-[(4-Carbamimidoylphenylamino)-(5-ethoxy-6-methoxypyridin-3-yl)methyl]-5-oxo-4,5-dihydro-[1,2,4]triazol-1-yl}thiophene-2-carboxylic acid]", "values": [
      {"measurement": "IC50", "value": 0.0038, "unit": "µM"}
    ]},
    {"smiles": "COc1cc(F)c(C(Nc2ccc(C(=N)N)cc2F)c2nn(-c3ncccn3)c(=O)[nH]2)cc1OC", "note": "(racemic) [Example 236, 3-Fluoro-4-{[(R) and (S)-(2-fluoro-4,5-dimethoxyphenyl)-(5-oxo-1-pyrimidin-2-yl-4,5-dihydro-1H-[1,2,4]triazol-3-yl)methyl]amino}benzamidine acetate]", "values": [
      {"measurement": "IC50", "value": 0.0118, "unit": "µM"}
    ]},
    {"smiles": "COc1cc(C(Nc2ccc(C(=N)N)cc2)c2nn(-c3ccsc3C(=O)O)c(=O)[nH]2)c(F)cc1OCCO", "note": "(racemic) [Example 237, 3-(3-{(4-Carbamimidoylphenylamino)-[2-fluoro-4-(2-hydroxyethoxy)-5-methoxyphenyl]methyl}-5-oxo-4,5-dihydro-[1,2,4]triazol-1-yl)thiophene-2-carboxylic acid]", "values": [
      {"measurement": "IC50", "value": 0.0235, "unit": "µM"}
    ]},
    {"smiles": "COc1cc(OC)c(F)c(C(Nc2ccc(C(=N)N)cc2)c2nn(-c3cccc[n+]3[O-])c(=O)[nH]2)c1", "note": "(single isomer, unassigned) [Example 2]", "values": [
      {"measurement": "IC50", "value": 0.0094, "unit": "µM"}
    ]},
    {"smiles": "COc1cc(C(Nc2ccc(C(=N)N)cc2)c2nn(-c3ncsc3C(=O)O)c(=O)[nH]2)cc2c1OCCCO2", "note": "(single isomer, unassigned) [Example 180, 4-{3-[(4-carbamimidoylphenylamino)-(9-methoxy-3,4-dihydro-2H-benzo[b][1,4]dioxepin-7-yl)methyl]-5-oxo-4,5-dihydro-[1,2,4]triazol-1-yl}thiazole-5-carboxylic acid]", "values": [
      {"measurement": "IC50", "value": 0.0101, "unit": "µM"}
    ]},
    {"smiles": "CCOc1cc(C(Nc2ccc(C(=N)N)cc2)c2nn(-c3ncsc3C(=O)O)c(=O)[nH]2)cnc1OC", "note": "(single isomer, unassigned) [Example 185, 4-{3-[(4-Carbamimidoylphenylamino)-(5-ethoxy-6-methoxypyridin-3-yl)methyl]-5-oxo-4,5-dihydro-[1,2,4]triazol-1-yl}thiazole-5-carboxylic acid]", "values": [
      {"measurement": "IC50", "value": 0.0116, "unit": "µM"}
    ]},
    {"smiles": "COc1cc(F)c(C(Nc2ccc(C(=N)N)cc2)c2nn(-c3nc[nH]c3C(=O)O)c(=O)[nH]2)cc1OC", "note": "(single isomer, unassigned) [Example 187, 5-{3-[(4-Carbamimidoylphenylamino)-(2-fluoro-4,5-dimethoxyphenyl)methyl]-5-oxo-4,5-dihydro-[1,2,4]triazol-1-yl}-3H-imidazole-4-carboxylic acid]", "values": [
      {"measurement": "IC50", "value": 0.009, "unit": "µM"}
    ]},
    {"smiles": "COc1cc(C(Nc2ccc(C(=N)N)cc2)c2nn(-c3ncsc3C(=O)O)c(=O)[nH]2)c(F)c2c1OCCO2", "note": "(single isomer, unassigned) [Example 188, 4-{3-[(4-Carbamimidoylphenylamino)-(5-fluoro-8-methoxy-2,3-dihydro-benzo[1,4]dioxin-6-yl)-methyl]-5-oxo-4,5-dihydro-[1,2,4]triazol-1-yl}thiazole-5-carboxylic acid]", "values": [
      {"measurement": "IC50", "value": 0.0224, "unit": "µM"}
    ]},
    {"smiles": "COc1cc(C(Nc2ccc(C(=N)N)cc2)c2nn(-c3nc[nH]c3C(=O)O)c(=O)[nH]2)c(F)c2c1OCCO2", "note": "(single isomer, unassigned) [Example 191, 5-{3-[(R) or (S)-(4-Carbamimidoylphenylamino)-(5-fluoro-8-methoxy-2,3-dihydrobenzo[1,4]dioxin-6-yl)methyl]-5-oxo-4,5-dihydro-[1,2,4]triazol-1-yl}-3H-imidazole-4-carboxylic acid trifluoroacetate]", "values": [
      {"measurement": "IC50", "value": 0.0093, "unit": "µM"}
    ]},
    {"smiles": "COc1cc(OCCCO)c(F)c(C(Nc2ccc(C(=N)N)cc2)c2nn(-c3[nH]ncc3C(=O)O)c(=O)[nH]2)c1", "note": "(single isomer, unassigned) [Example 198, (R) or (S)-5-(3-{(4-Carbamimidoylphenylamino)-[2-fluoro-3-(3-hydroxypropoxy)-5-methoxyphenyl]methyl}-5-oxo-4,5-dihydro-[1,2,4]triazol-1-yl)-1H-pyrazole-4-carboxylic acid acetate]", "values": [
      {"measurement": "IC50", "value": 0.0196, "unit": "µM"}
    ]},
    {"smiles": "COc1cc(COCCO)c(F)c(C(Nc2ccc(C(=N)N)cc2)c2nn(-c3ncccn3)c(=O)[nH]2)c1", "note": "(single isomer, unassigned) [Example 216, 4-{[[2-Fluoro-3-(2-hydroxyethoxymethyl)-5-methoxyphenyl]-(5-oxo-1-pyrimidin-2-yl-4,5-dihydro-1H-[1,2,4]triazol-3-yl)methyl]amino}benzamidine]", "values": [
      {"measurement": "IC50", "value": 0.0134, "unit": "µM"}
    ]},
    {"smiles": "COc1cc(CF)cc(C(Nc2ccc(C(=N)N)cc2)c2nn(-c3ncccn3)c(=O)[nH]2)c1", "note": "(stereo not shown) [Example 11, 4-{[(3-fluoromethyl-5-methoxyphenyl)-(5-oxo-1-pyrimidin-2-yl-4,5-dihydro-1H-[1,2,4]triazol-3-yl)methyl]amino}benzamidine acetate]", "values": [
      {"measurement": "IC50", "value": 0.0297, "unit": "µM"}
    ]},
    {"smiles": "COc1ccccc1-n1nc(C(Nc2ccc(C(=N)N)cc2)c2cc(C)cc(OC)c2F)[nH]c1=O", "note": "(stereo not shown) [Example 14, 4-({(2-fluoro-3-methoxy-5-methylphenyl)-[1-(2-methoxyphenyl)-5-oxo-4,5-dihydro-1H-[1,2,4]triazol-3-yl]methyl}amino)benzamidine trifluoroacetate]", "values": [
      {"measurement": "IC50", "value": 0.0059, "unit": "µM"}
    ]},
    {"smiles": "COc1cc(C(Nc2ccc(C(=N)N)cc2)c2nn(-c3ncccn3)c(=O)[nH]2)cc(CO)c1OC", "note": "(stereo not shown) [Example 23, 4-{[(5-hydroxymethyl-3,4-dimethoxyphenyl)-(5-oxo-1-pyrimidin-2-yl-4,5-dihydro-1H-[1,2,4]triazol-3-yl)methyl]amino}benzamidine acetate]", "values": [
      {"measurement": "IC50", "value": 0.0239, "unit": "µM"}
    ]},
    {"smiles": "COc1cc(C(Nc2ccc(C(=N)N)cc2)c2nn(-c3ncccn3)c(=O)[nH]2)cc(C(C)O)c1OC", "note": "(stereo not shown) [Example 25, 4-({[3-(1-hydroxyethyl)-4,5-dimethoxyphenyl]-(5-oxo-1-pyrimidin-2-yl-4,5-dihydro-1H-[1,2,4]triazol-3-yl)methyl}amino)benzamidine acetate]", "values": [
      {"measurement": "IC50", "value": 0.0151, "unit": "µM"}
    ]},
    {"smiles": "COc1cc(OCCF)c(F)c(C(Nc2ccc(C(=N)N)cc2)c2nn(-c3cccc(N)n3)c(=O)[nH]2)c1", "note": "(stereo not shown) [Example 51, 4-({[1-(6-aminopyridin-2-yl)-5-oxo-4,5-dihydro-1H-[1,2,4]triazol-3-yl]-[2-fluoro-3-(2-fluoroethoxy)-5-methoxyphenyl]methyl}amino)benzamidine trifluoroacetate]", "values": [
      {"measurement": "IC50", "value": 0.0051, "unit": "µM"}
    ]},
    {"smiles": "COc1cc(C(Nc2ccc(C(=N)N)cc2)c2nn(-c3ncccc3N)c(=O)[nH]2)cc2c1OCOC2", "note": "(stereo not shown) [Example 57, 4-({[1-(3-aminopyridin-2-yl)-5-oxo-4,5-dihydro-1H-[1,2,4]triazol-3-yl]-(8-methoxy-4H-benzo[1,3]dioxin-6-yl)methyl}amino)benzamidine acetate]", "values": [
      {"measurement": "IC50", "value": 0.0089, "unit": "µM"}
    ]}
  ]
}
